Data reported in patent US7638554B2, “Flavanoids as chemotherapeutic, chemopreventive, and antiangiogenic agents” (SRI International, priority 2002, dated 2009).

How the values were obtained:
[1] = tested on: ovarian cancer cell line OVCAR-8; assay: Growth inhibition, sulforhodamine-based protein determination, OVCAR-8; format: cell-based; details: Homo sapiens, OVCAR-8, 144 h; continuous exposure six days
Protocol: (§1) The novel compound SR 13179 was assayed for its ability to inhibit growth in several cancer cell lines. The cell lines studied included breast cancer cell line MCF-7 (ER+); prostate cancer cell lines LNCaP, PC3, and DU145; lung cancer cell line A427; ovarian cancer cell lines IGROV1, OVCAR-3, OVCAR-4, OVCAR-5, OVCAR-8, and SK-OV-3; and colon cancer cell lines COLO 205, HCC-2998, HCT-116, HCT-15, HT29, KM12, AND SW-620.
(§2) The growth assays for the breast cancer cell lines were conducted according to the method of Example 16. For the other cell lines, each assay was conducted with continuous exposure to the test compound at four log concentrations for six days, using a sulforhodamine-based protein determination to measure growth inhibition.

[2] = tested on: membrane-type 1 MMP (MT1-MMP); assay: MT1-MMP protein expression, MCF-10-CA1a cells; format: cell-based, human
Description: (§3) Western Blotting. Proteins were separated by gel electrophoresis using 4-12% pre-cast SDS-polyacrylamide gels (Invitrogen, Carlsbad, Calif.) and then electrophoretically transferred onto Hybond™-P membrane (Amersham Biosciences, Piscataway, N.J.). Blots were probed with specific antibodies (Santa Cruz Biotechnology, Inc). The ECL Plus Western Blotting Detection System of Amersham Biosciences (Piscataway, N.J.) and the procedure recommended by the manufacturer was used for the detection of antigens. Protein bands were quantified by analyzing the images obtained using an Alphaimager™ S-3400 (Alpha Innotech Corp., San Leandro, Calif.).
(§4) The effects of SR 13179 on the protein expression of TIMP-1, TIMP-2, and membrane-type 1 MMP (MT1-MMP) were studied. SR13179 induced the protein expression of TIMP-2 in a dose- and time-dependent manner. MCF-10-CA1a cells were treated with SR 13179 at 1, 3, or 5 μM concentrations for 48 h, or, alternatively, with […] SR 13179 for 8, 24, or 48 h. Cells were lysed and subjected to Western blotting.
(§5) The effect of SR13179 on the extracellular levels of TIMP-2 as well as MMP-2 was also investigated. Treatment of MCF-10CA1a cells with SR13179 at 5 μM concentration caused 5- to 8-fold increase in the secreted level of TIMP-2 and a 2-fold decrease in the extracellular level of MMP-2. […]

[3] = tested on: lung cancer cell line A427; assay: Growth inhibition, sulforhodamine-based protein determination, A427; format: cell-based; details: Homo sapiens, A-427, 144 h; continuous exposure six days
Protocol: as §1, §2

TIMP-1 = TIMP-1 protein expression, MCF-10-CA1a cells; format: cell-based, human
Description: as §3, §4, §5

[4] = tested on: prostate cancer cell line DU145; assay: Growth inhibition, sulforhodamine-based protein determination, DU145; format: cell-based; details: Homo sapiens, DU-145, 144 h; continuous exposure six days
Protocol: as §1, §2

[5] = tested on: colon cancer cell line COLO 205; assay: Growth inhibition, sulforhodamine-based protein determination, COLO 205; format: cell-based; details: Homo sapiens, COLO 205, 144 h; continuous exposure six days
Protocol: as §1, §2

MMP-2 [6] = assay: Western blotting of cell-associated MMP-2 protein, MCF-10-CA1a cells; format: cell-based, human; details: 1, 3, or 5 μM, 48 h
Description: as §3
The effect of SR 13179 on cell-associated MMP-2 and MMP-9 protein levels was studied. MCF-10-CA1a cells were treated with SR 13179 at 1, 3, or 5 μM concentrations for 48 h. Untreated cells were used as control. Proteins were separated by SDS-Polyacrylamide gel electrophoresis and electrophoretically transformed onto Hybond™ P membrane (Amerhsam Biosciences). Blots were probed with specific antibodies (Santa Cruz Biotechnology Inc.).

[7] = tested on: ovarian cancer cell line OVCAR-4; assay: Growth inhibition, sulforhodamine-based protein determination, OVCAR-4; format: cell-based; details: Homo sapiens, OVCAR-4, 144 h; continuous exposure six days
Protocol: as §1, §2

human TIMP-2 mRNA = assay: Northern blot analysis of TIMP-2 mRNA, MCF10CA1a cells; format: cell-based; details: 0.5, 1, 3, or 5 μM
Protocol: Northern blotting. Ten μg of total RNA was electrophoresed in 1% agarose gel containing 6% formaldehyde, transferred to nylon membrane (Amersham Hybond N) by capillary blotting and fixed to the filter by exposure to UV. The blot was probed with a 600 bp ^32P-labeled cDNA sequence of human TIMP-2. Hybridizations were carried out at 42° C. in 50% formamide, 5×SSC, 5×Denhardt's solution, 0.1% SDS, and 0.3 mg/ml salmon sperm DNA. Filters were exposed to X-ray film (Kodak XAR-2) at −80° C. using an intensifying screen (Coronex Hi-Plus).
(§6) The effect of SR13179 on the extracellular levels of TIMP-2 as well as MMP-2 was also investigated. Treatment of MCF-10CA1a cells with SR13179 at 5 μM concentration caused 5- to 8-fold increase in the secreted level of TIMP-2 and a 2-fold decrease in the extracellular level of MMP-2. However, extracellular TIMP-2 protein was always associated with MMP-2 protein, even after the samples were boiled for 10 min and separated under the denaturing conditions of gel electrophoresis.

MMP-2 [8] = assay: Extracellular level of MMP-2, MCF-10CA1a cells; format: cell-based, human; details: 5 μM
Protocol: as §6

[9] = tested on: ovarian cancer cell line SK-OV-3; assay: Growth inhibition, sulforhodamine-based protein determination, SK-OV-3; format: cell-based; details: Homo sapiens, SK-OV-3, 144 h; continuous exposure six days
Protocol: as §1, §2

[10] = tested on: chick chorioallantoic membrane (CAM) blood vessels; assay: Chick chorioallantoic membrane (CAM) assay for antiangiogenic activity; format: in vivo
Protocol: The CAM assay, which is widely applied to evaluate in vivo antiangiogenic activity, was utilized with SR 13179.
The methods used were those of Folkman (Auerbach et al. (1974) Dev. Biol. 41:391-394), with some modifications. The test compound was dissolved in saline and methylcellulose, and the embryos dosed once daily for 12-14 days. Blood vessel density of each embryo was measured as the quantitative endpoint. The known antiangiogenic compound medroxyprogesterone acetate (MPA) was used as a positive control.

[11] = 11.1 μg/CAM, once daily for 12-14 days

**Q.** With `COc1cc(C2CC(O)c3ccc4ccccc4c3O2)cc(OC)c1OC` (centres unmarked) [SR 13179, 2-(3,4,5-trimethoxyphenyl)-3,4-dihydro-2H-benzo[h]chromen-4-ol] as the compound, how does the IC50 [1] read?
**A.** 364 nM

**Q.** And the MT1-MMP protein levels [2]?
**A.** no significant effect

**Q.** And the IC50 [3]?
**A.** 510 nM

**Q.** What about the TIMP-1 protein levels (TIMP-1) of the same compound?
**A.** no significant effect

**Q.** And the IC50 [4]?
**A.** 638 nM

**Q.** What about the IC50 [5] of the same compound?
**A.** 266 nM

**Q.** What about the “cell-associated MMP-2 protein levels” value (MMP-2 [6]) of the same compound?
**A.** does not affect

**Q.** And the IC50 [7]?
**A.** 423 nM

**Q.** And the “TIMP-2 mRNA” value (human TIMP-2 mRNA)?
**A.** dose-dependent induction

**Q.** What about the “decrease in the extracellular level of MMP-2” value (MMP-2 [8]) of the same compound?
**A.** 2 fold

**Q.** And the IC50 [9]?
**A.** 529 nM

**Q.** And the “Blood vessel density score” value [10, 11]?
**A.** 4.6 ± 2.2

**Q.** And the “Percent inhibition relative to control” value [10, 11]?
**A.** 57%

**Q.** And the “in vivo antiangiogenic activity compared with MPA” value ([10]; CAM assay)?
**A.** equivalent to that of MPA
